Data: patent publication US20240400584A1, “COMPOUNDS AND METHODS FOR MODULATING SPLICING” (REMIX THERAPEUTICS INC., priority 2021, published 2024)

Assays:
MYB [1] = test: RT-qPCR splicing assay, MYB AJ/CJ mRNA; type: cell-based; details: Homo sapiens, A673 or K562 cells, 24 hours; for IC50: decrease in canonical junction mRNA; for AC50: increase in alternative junction mRNA
Description: (§1) Compounds described herein were used to modulate RNA transcript abundance in cells. The expression of a target mRNA was measured by detecting the formation of an exon-exon junction in the canonical transcript (CJ). A compound mediated exon-inclusion event was detected by observing an increase in formation OF A new junction with an alternative exon (AJ). Real-time qPCR assays were used to detect these splicing switches and interrogate the potency of various compounds towards different target Genes. A high-throughput real time quantitative PCR (RT-qPCR) assay was developed to measure these two isoforms of the mRNA (CJ and AJ) for exemplary genes, such as HTT, SMN2, and MYB, together with a control housekeeping gene, GAPDH or GUSB or PPIA, used for normalization. Briefly, the A673 or K562 cell line was treated with various compounds described herein (e.g., compounds of Formula (i)). After treatment, the levels of the HTT, MYB, or SMN2 mRNA targets were determined from each sample of cell lysate by cDNA synthesis followed by qPCR.
(§2) The A673 cell line was cultured in DMEM with 10% FBS. Cells were diluted with full growth media and plated in a 96-well plate (15,000 cells in 100 ul media per well). The plate was incubated at 37° C. with 5% CO2 for 24 hours to allow cells to adhere. An 11-point 3-fold serial dilution of the compounds was made in DMSO then diluted in media in an intermediate plate. Compounds were transferred from the intermediate plate to the cell plate with the top dose at a final concentration of 10 uM in the well. Final DMSO concentration was kept at or below 0.25%. The cell plate was returned to the incubator at 37° C. with 5% CO2 for an additional 24 hours.
(§3) The K562 cell line was cultured in IMDM with 10% FBS. For K562, cells were diluted with full growth media and plated in either a 96-well plate (50,000 cells in 50 uL media per well) or a 384-well plate (8,000-40,000 cells in 45 uL media per well). An 11-point 3-fold serial dilution of the compounds were made in DMSO then diluted in media in an intermediate plate. Compound was transferred from the intermediate plate to the cell plate with the top dose at a final concentration of 10 uM in the well. Final DMSO concentration was kept at or below 0.25%. Final volume was 100 uL for 96-well plate and 50 uL for 384-well plate. The cell plate was then placed in an incubator at 37° C. with 5% CO2 for 24 hours.
(§4) The cells were then gently washed with 50 uL-100 uL Cold Pbs before proceeding to addition of lysis buffer. 30 uL-50 μL of room temperature lysis buffer with DNAse I (and optionally RNAsin) was added to each well. Cells were shaken/mixed thoroughly at room temperature for 5-10 minutes for lysis to take place and then 3 uL-5 μL of room temperature stop solution was added and wells were shaken/mixed again. After 2-5 minutes, the cell lysate plate was transferred to ice for RT-qPCR reaction setup. The lysates could also be frozen at −80° C. for later use.
(§5) In some cases, a direct lysis buffer was used. an appropriate volume of 3× lysis buffer (10 mM tRis, 150 mM NaCl, 1.5%-2.5% Igepal and 0.1-1 U/uL RNAsin, pH 7.4) was directly added to either K562 or A673 cells in media and mixed by pipetting 3 times. The plates were then incubated at room temperature with shaking/rocking for 20-50 minutes to allow for lysis to take place. After this time, the cell lysate plate was transferred to ice to set up for the RT-qPCR reactions. The lysates could also be frozen at −80° C. for later use.
(§6) To set up 10 uL RT-QpcR reactions, cell lysates were transferred to 384-well qPCR plates containing the master mix according to the table below. The plates were sealed, gently vortexed, and spun down before the run. The volumes were adjusted accordingly in some instances where the reaction was carried in 20 µL. The table below summarizes the components of the RT-qPCR reactions:
(§7) The RT-qPCR reaction was performed using a QuantStudio (ThermoFisher) under the following fast cycling conditions. […]

SMN2 = test: Gene panel canonical junction qPCR assay, SMN2 CJ mRNA (Table 7); type: cell-based; details: Homo sapiens, read-out: SMN2 CJ mRNA decrease IC50
Description: as §1
(§8) The data analysis was performed by first determining the ΔCt vs the housekeeper gene. This ΔCt was then normalized against the DMSO control (ΔΔCt) and converted to RQ (relative quantification) using the 2^(−ΔΔCt) equation. The RQ were then converted to a percentage response by arbitrarily setting an assay window of 3.5 and 4.0 ΔCt for HTT-CJ and MYB-CJ respectively and an assay window of 9 and 3 ΔCt for HTT-AJ and MYB-AJ in 96 well format (50,000 K562 cells/well and 15,000 A673 cells per well) and an assay window of 3 and 4 ΔCt for HTT-CJ and MYB-CJ respectively and an assay window of 5 and 3 ΔCt for HTT-AJ and MYB-AJ respectively in 384 well format (8,000 K562 cells/well example). […] The percentage response was then fitted to the 4 parametric logistic equation to evaluate the concentration dependence of compound treatment. The increase in AJ mRNA is reported as AC50 (compound concentration having 50% response in AJ increase) while the decrease in CJ mRNA levels is reported as IC50 (compound concentration having 50% response in CJ decrease).
(§9) Additional studies were carried out for a larger panel of genes using the protocol provided above. The junction between flanking upstream and downstream exons was used to design canonical junction qPCR assays. At least one of the forward primer, reverse primer or the CY5-labeled 5′ nuclease probe (with 3′ quencher such as ZEN/Iowa Black FQ) was designed to overlap with the exon junction to capture the CJ mRNA transcript. BLAST was used to confirm the specificity of the probeset and parameters such as melting temperature, GC content, amplicon size, and primer dimer formation are considered during their design. Data for the decrease in CJ mRNA levels for four exemplary genes (HTT, SMN2, MYB, and Target C) analyzed in this panel are reported as IC50 (compound concentration having 50% response in CJ decrease).

HTT [2] = test: Gene panel canonical junction qPCR assay, HTT CJ mRNA (Table 7); type: cell-based, human; details: Homo sapiens, read-out: HTT CJ mRNA decrease IC50
Description: as §1, §8, §9

HTT [3] = test: RT-qPCR splicing assay, HTT AJ/CJ mRNA; type: cell-based, human; details: Homo sapiens, 24 h, A673 or K562 cells; for IC50: decrease in canonical junction mRNA; for AC50: increase in alternative junction mRNA
Description: as §1, §2, §3, §4, §5, §6, §7

Target C = test: Gene panel canonical junction qPCR assay, Target C CJ mRNA (Table 7); type: cell-based, human; details: Homo sapiens, read-out: Target C CJ mRNA decrease IC50
Description: as §1, §8, §9

MYB [4] = test: Gene panel canonical junction qPCR assay, MYB CJ mRNA (Table 7); type: cell-based; details: Homo sapiens, read-out: MYB CJ mRNA decrease IC50
Description: as §1, §8, §9

## c1cnn(-c2ccc3c(c2)COc2nc(N4CCNCC4)ccc2-3)c1 [Compound 173]
MYB [1]
  IC50: > 10000 nM
  AC50: > 10000 nM
SMN2
  IC50: 1000 to 10000 nM
HTT [2]
  IC50: > 10000 nM
HTT [3]
  IC50: > 10000 nM
  AC50: > 10000 nM
Target C
  IC50: > 10000 nM
MYB [4]
  IC50: > 10000 nM

## CN(c1ccc2c(n1)OCc1cc(-n3cccn3)ccc1-2)C1CCNCC1 [Compound 175]
MYB [1]
  IC50: > 10000 nM
  AC50: > 10000 nM
SMN2
  IC50: 1000 to 10000 nM
HTT [2]
  IC50: > 10000 nM
HTT [3]
  IC50: > 10000 nM
  AC50: 1000 to 10000 nM
Target C
  IC50: > 10000 nM
MYB [4]
  IC50: > 10000 nM

## COc1cc(-c2ccc3c(c2)COc2nc(N(C)[C@H]4C[C@@H]5CC(F)(F)[C@H](C4)N5)ccc2-3)cnn1 [Compound 247, (1R,3S,5S)-6,6-difluoro-N-[8-(6-methoxypyridazin-4-yl)-6H-isochromeno[3,4-b]pyridin-3-yl]-N-methyl-8-azabicyclo[3.2.1]octan-3-amine]
MYB [1]
  IC50: 100 to 1000 nM
  AC50: > 10000 nM
SMN2
  IC50: < 100 nM
HTT [2]
  IC50: < 100 nM
HTT [3]
  IC50: < 100 nM
  AC50: < 100 nM
Target C
  IC50: 100 to 1000 nM
MYB [4]
  IC50: 100 to 1000 nM

## CC1(NC2CCN(c3ccc4c(n3)OCc3cc(-c5cn[nH]c5)ccc3-4)C2)CC1 (stereo not shown) [Compound 253, N-(1-methylcyclopropyl)-1-[8-(1H-pyrazol-4-yl)-6H-isochromeno[3,4-b]pyridin-3-yl]pyrrolidin-3-amine]
MYB [1]
  IC50: 100 to 1000 nM
  AC50: 100 to 1000 nM
SMN2
  IC50: < 100 nM
HTT [2]
  IC50: 100 to 1000 nM
HTT [3]
  IC50: 100 to 1000 nM
  AC50: < 100 nM
Target C
  IC50: 100 to 1000 nM
MYB [4]
  IC50: 100 to 1000 nM

## COc1cc(-c2ccc3c(c2)COc2nc(OC4CC(C)(C)NC(C)(C)C4)ccc2-3)cnn1 [Compound 226, 3-methoxy-5-{3-[(2,2,6,6-tetramethylpiperidin-4-yl)oxy]-6H-isochromeno[3,4-b]pyridin-8-yl}pyridazine]
MYB [1]
  IC50: 100 to 1000 nM
  AC50: > 10000 nM
SMN2
  IC50: < 100 nM
HTT [2]
  IC50: < 100 nM
HTT [3]
  IC50: < 100 nM
  AC50: < 100 nM
Target C
  IC50: 100 to 1000 nM
MYB [4]
  IC50: 100 to 1000 nM

## [2H]C([2H])([2H])N(c1ccc2c(n1)OCc1cc(-n3cccn3)ccc1-2)C1C[C@H]2CCC[C@@H](C1)N2 (stereo partly shown) [Compound 200]
MYB [1]
  IC50: 100 to 1000 nM
  AC50: 100 to 1000 nM
SMN2
  IC50: < 100 nM
HTT [2]
  IC50: < 100 nM
HTT [3]
  IC50: < 100 nM
  AC50: < 100 nM
Target C
  IC50: 100 to 1000 nM
MYB [4]
  IC50: 100 to 1000 nM

## CC1(C)CC(Oc2ccc3c(n2)OCc2cc(-n4cccn4)ccc2-3)CCN1 (stereo not shown) [Compound 186]
MYB [1]
  IC50: 1000 to 10000 nM
  AC50: > 10000 nM
SMN2
  IC50: 100 to 1000 nM
HTT [2]
  IC50: 1000 to 10000 nM
HTT [3]
  IC50: 1000 to 10000 nM
  AC50: 1000 to 10000 nM
Target C
  IC50: > 10000 nM
MYB [4]
  IC50: 1000 to 10000 nM

## COc1cc(-c2ccc3c(c2)COc2nc(O[C@@H]4C[C@H]5CC[C@@H](C4)N5)ncc2-3)cnn1 [Compound 298]
MYB [1]
  IC50: 1000 to 10000 nM
  AC50: 100 to 1000 nM
SMN2
  IC50: < 100 nM
HTT [2]
  IC50: 100 to 1000 nM
HTT [3]
  IC50: 100 to 1000 nM
  AC50: 100 to 1000 nM
Target C
  IC50: 1000 to 10000 nM
MYB [4]
  IC50: 1000 to 10000 nM

## Cn1ncc(-c2ccc3c(c2)COc2nc(OC4CC5CC(F)(F)C(C4)N5)ccc2-3)cc1=O (stereo not shown) [Compound 261, 5-[3-({6,6-difluoro-8-azabicyclo[3.2.1]octan-3-yl}oxy)-6H-isochromeno[3,4-b]pyridin-8-yl]-2-methylpyridazin-3-one]
MYB [1]
  IC50: > 10000 nM
  AC50: > 10000 nM
SMN2
  IC50: > 10000 nM
HTT [2]
  IC50: > 10000 nM
HTT [3]
  IC50: > 10000 nM
  AC50: > 10000 nM
Target C
  IC50: > 10000 nM
MYB [4]
  IC50: > 10000 nM

## CC1(NC2CCN(c3ccc4c(n3)OCc3cc(-n5nccn5)ccc3-4)C2)CC1 (stereo not shown) [Compound 252, N-(1-methylcyclopropyl)-1-[8-(1,2,3-triazol-2-yl)-6H-isochromeno[3,4-b]pyridin-3-yl]pyrrolidin-3-amine]
MYB [1]
  IC50: 1000 to 10000 nM
  AC50: 1000 to 10000 nM
SMN2
  IC50: 100 to 1000 nM
HTT [2]
  IC50: 100 to 1000 nM
HTT [3]
  IC50: 100 to 1000 nM
  AC50: 1000 to 10000 nM
Target C
  IC50: 1000 to 10000 nM
MYB [4]
  IC50: 1000 to 10000 nM

## COc1cc(-c2cc3c(cc2F)-c2ccc(N(C)[C@@H]4C[C@H]5CC[C@@H](C4)N5)nc2OC3)cnn1 [Compound 242]
MYB [1]
  IC50: 1000 to 10000 nM
  AC50: < 100 nM
SMN2
  IC50: < 100 nM
HTT [2]
  IC50: < 100 nM
HTT [3]
  IC50: < 100 nM
  AC50: < 100 nM
Target C
  IC50: < 100 nM
MYB [4]
  IC50: 100 to 1000 nM
